In brackets after ≈: the same amount, converted by molar mass. Where two headings read alike, the source gives them in different places.
Key:
[1] = system: P388 murine leukemia cells; assay: P388 in vitro antitumor screen (MTT, 48 h); assay type: cell-based
Experimental: Cell Culture. P388 murine leukemia cells, obtained from the National Cancer Institute, Bethesda, MD, were maintained at 37° C. in 5% CO2 in humidified air. Growth medium was Roswell Park Memorial Institute medium 1640 supplemented with 10% heat-inactivated horse serum. Stock cultures of P388 cells were grown in antibiotic-free growth medium and were subcultured (10^5 cells/ml, 25 ml cultures in T-25 plastic tissue culture flasks) every 2-3 days. […] An appropriate volume of the dilution was transferred to duplicate wells in a 96-well plate, evaporated to dryness, and 200 μl of growth medium containing cells at a density of 1×10^5 cells/ml was added per well. […] For daily quality control, each technician determines the IC50 of fluorouracil for inhibition of P388 cell proliferation. After 48-hour incubations, cell number was determined with the MTT assay (below), calculated as a percent of untreated cell growth, converted to percent inhibition, and reported to the chemist requesting the screen.
Determination of IC50 Values. The initial determination of an IC50 value for inhibition of P388 cell proliferation with a crude, semipure, or pure sample was made by diluting the sample in methanol to the appropriate concentration and then serial 1:1 dilutions were made in duplicate in a 96-well plate, such that the final concentrations in the assay were […] μg/ml. After solvent was evaporated to dryness, cells were added to each well as described above. After 48-hour incubations, cell numbers were determined with the MTT assay, converted to percent control, plotted versus the log of the sample concentration. Curves were fitted by least-squares linear regression of logit-transformed data and the concentration of sample that inhibited cell proliferation by 50% was reported to the chemist requesting the screen.
MTT Assay for Cell Number. MTT or 3-(4,5-Dimethylthiazol-2-yl)-2,5-diphenyl-tetrazolium bromide is used in an established method (J. Immunol. Methods, 1983, 65: 55-63) to enumerate cells rather than "Coulter counting".

CV-1 cells [2] = assay: Cytotoxicity in antiviral assay (Table 4); assay type: cell-based, African green monkey; design: key: 0 = no cytotoxicity, 16 = complete cell destruction
Experimental: (§1) a. Herpes simplex type 1 (HSV-1) replicates in the CV-1 cell line. CV-1 is a fibroblast-like cell culture derived from primary African green monkey cells. a. For drug evaluation wet filter paper discs (6 mm dia.) with approx. 0.02 ml of test compound. Allow solvent to evaporate for 20-30 mins. at ambient temperature, then place discs in the well containing CV-1 cells, virus and MCO. b. Incubate tissue culture plates for 48 hrs. at 37 C. c. After 48 hrs. place 0.5 ml NRMCO on each well. (NRMCO is a maintenance overlay medium without phenol red containing 0.1 mg neutral red dye/ml and 2% 15 Cps. methylcellulose. b. Cytotoxicity (Cyt) 0=no visual or microscopic cytotoxicity 16=complete cell destruction 8, 10, 12, 14=partial cytotoxicity.

CV-1 cells [3] = assay: Cytotoxicity in antiviral disc assay (Table 3); assay type: cell-based, African green monkey; design: key: 0 = no cytotoxicity, 16 = complete cell destruction
Experimental: as §1

HSV-1 = HSV-1 antiviral activity assay (Table 4); assay type: cell-based, Herpes simplex type 1 (HSV-1); design: key to the marks not given beside the values
Experimental: (§2) a. Herpes simplex type 1 (HSV-1) replicates in the CV-1 cell line. CV-1 is a fibroblast-like cell culture derived from primary African green monkey cells.
(§3) a. Dilute the cells with EMEM to 4×10^5 cells/ml.
(§4) b. See 24-well trays with 0.5 ml per well. Cell concentration is […] cells.
(§5) c. Incubate at 37 C. for 1.5 hours.
(§6) d. The wells can be used over the next several days beginning the day after seeding (preferably 2, 3, or 4).
(§7) a. Remove medium from wells.
(§8) b. Infect well with at least 25 and no more than 80 plaque forming units (PFU) of virus.
(§9) c. Incubate infected cells at 37 C. for 1.5 hrs.
(§10) d. Pour off supernatant at end of incubation period.
(§11) e. Add 0.5 ml of methylcellulose overlay medium (MCO). MCO is a maintenance medium without phenol red made with 1% 4000 centipose methylcellulose. FBS is used at 5% level.
(§12) a. For drug evaluation wet filter paper discs (6 mm dia.) with approx. 0.02 ml of test compound. Allow solvent to evaporate for 20-30 mins. at ambient temperature, then place discs in the well containing CV-1 cells, virus and MCO.
(§13) b. Incubate tissue culture plates for 48 hrs. at 37 C.
(§14) c. After 48 hrs. place 0.5 ml NRMCO on each well. (NRMCO is a maintenance overlay medium without phenol red containing 0.1 mg neutral red dye/ml and 2% 15 Cps. methylcellulose.
(§15) d. Incubate plates at 37 C. and read the following day. Antiviral activity should be observed from two parameters. One is actual reduction in the number of plaques and two is the diminution in plaque diameter.
(§16) a. Antiviral activity (AVA) is scored from 0 to +++.
(§17) +++=complete inhibiton of plaque formation

P388 leukemia = assay type: in vivo, BDF1 mice; settings: days 1-5, mice
Experimental: P388 leukemia obtained from DBA/2 mice was inoculated ip into BDF1 mice. The inoculum level was 10^6 cells in 0.1 ml. Mice were randomized on day 1 into groups of six mice since bacteriological check of tumor was negative. Test materials were dissolved or suspended in sterile 0.98% NaCl solution with the aid of absolute ethanol and "Tween-80", then administered ip, qD1-5, in a volume of 0.5 ml/mouse. Mice were weighed on days 1 & 5 to provide evidence of toxicity and deaths were recorded daily. Each test included appropriate numbers of untested control mice, one-dose level of the positive reference compound 5-fluorouracil and test material (four dose levels each). Test material were prepared fresh on day 1 and administered daily for five days. Quantity and consistency of test material precluded fresh preparation daily. Doses were derived from prior single treatment acute toxicity assays. The endpoints for therapeutic evaluation were mean and median survival time and long-term survivors on day 30. A 25% percent increase in life span (%ILS) was considered evidence of significant activity.

[4] = system: Herpes simplex virus type 1 (HSV-1); assay: Antiviral disc assay for HSV-1 (Table 3); assay type: cell-based, Herpes simplex type 1 (HSV-1)
Experimental: as §2, §3, §4, §5, §6, §7, §8, §9, §10, §11, §12, §13, §14, §15, §16, §17

[5] = system: A549 human lung carcinoma cells; assay: Human tumor cell line assay, A549; assay type: cell-based; settings: 120 h, read-out: A549: cell density compared with control growth; for activity at 500 fg/mL: 0.5 pg/ml
Experimental: (§18) HCT-8 human colon tumor cells are grown in RPM1 1640 medium (GIBCO). A549 human lung carcinoma cells and T47D human breast carcinoma cells are cultured in Dulbecco medium (Biologos, Inc.). All media are supplemented with 10% fetal bovine serum and contain 50 μg/ml gentamicin. All human tumor cell lines are incubated in 5% CO2 at 37° C. and subcultured once a week.
(§19) 2. Incubate in a CO2 -incubator for 48 hours.
(§20) 3. Add compound to each well and incubate for an additional 120 hours.
(§21) 4. Discard medium and stain with methylene blue (HCT-8) or crystal violet (A549 & T47D).
(§22) 5. Compare density of drug-treated well with that of the control (no drug added) as follows: ND (not detectable) >90%, 1+=75-90%, 2+=50-74%, 3+=25-49%, 4+=<25% of control growth.
(§23) Final conc. of Vinblastine or Vincristine control (use 2 μl/assay).
(§24) For solvents other than water, allow solvent to evaporate from tube or well in hood. Always run a solvent control in duplicate in the last two wells of each plate or four tubes for each rack of 72 or fewer tubes. Also run four wells or tubes with media and cells only per run of plates or tubes. When using volumes of aqueous solutions greater than 200 ml, dry sample and bring to desired concentration in media.

[6] = Biological activities of synthesized versus natural topsentin
[7] = system: T47D human breast carcinoma cells; assay: Human tumor cell line assay, T47D; assay type: cell-based; settings: 120 h, read-out: T47D: cell density compared with control growth
Experimental: as §18, §19, §20, §21, §22, §23, §24

[8] = Mus musculus, P388 murine leukemia cells, 48 h, MTT

O=C(c1nc(-c2c[nH]c3ccccc23)c[nH]1)c1c[nH]c2ccc(O)cc12 [Compound 7, Neotopsentin]
IC50 [1, 8]: 2.5 µg/mL (≈ 7.3 µM) | CYT. (CV-1 cells [2]; Table 4, 20 μg/disk): 0 | CYT. (CV-1 cells [3]; Table 3, 20 ug/disk): 0

O=C(c1nc(-c2c[nH]c3cc(O)ccc23)c[nH]1)c1c[nH]c2ccccc12 [Compound 4, Isotopsentin]
IC50 [1, 8]: 4 µg/mL (≈ 11.7 µM) | AVA (HSV-1; Table 4, 20 μg/disk): +++ | CYT. (CV-1 cells [2]; Table 4, 2 μg/disk): 0 | CYT. (CV-1 cells [2]; Table 4, 20 μg/disk): 0

O=C(c1nc(-c2c[nH]c3ccccc23)c[nH]1)c1c[nH]c2cc(O)ccc12 [Compound 1, Topsentin]
Survival % T/C (P388 leukemia; 37.5 mg/kg ip): 111% | Survival % T/C (P388 leukemia; 75 mg/kg ip): 116% | Survival % T/C (P388 leukemia; 150 mg/kg ip): 132% | Survival % T/C (P388 leukemia; 300 mg/kg ip): 110% | AVA ([4]; Table 3, 50 ug/disk): + | AVA ([4]; Table 3, 200 ug/disk): ++ | activity at 500 fg/mL [5]: > 90% | activity at 50 pg/mL [5]: < 25% | biological activities compared with natural topsentin [6]: identical with natural topsentin in spectral data and in biological activities | IC50 [1, 8]: 2 µg/mL (≈ 5.84 µM) | AVA (HSV-1; Table 4, 2 μg/disk): +++ | AVA (HSV-1; Table 4, 20 μg/disk): +++ | CYT. (CV-1 cells [2]; Table 4, 0.2 μg/disk): 0 | CYT. (CV-1 cells [2]; Table 4, 2 μg/disk): 0 | CYT. (CV-1 cells [2]; Table 4, 20 μg/disk): 0 | CYT. (CV-1 cells [3]; Table 3, 20 ug/disk): 0 | CYT. (CV-1 cells [3]; Table 3, 50 ug/disk): 0 | CYT. (CV-1 cells [3]; Table 3, 200 ug/disk): 0 | activity at 5 pg/mL [7]: 50 to 74% | activity at 20 pg/mL [7]: < 25% | activity at 50 pg/mL [7]: < 25% | activity at 500 fg/mL [7]: > 90%

O=c1[nH]cc(F)c(=O)[nH]1 [fluorouracil, 5-fluorouracil, reference compound]
inhibition at 0.2 µg/mL ([1]; Mus musculus, P388, read-out: inhibition of cell replication): ~95%

O=C(c1nc(-c2c[nH]c3ccc(O)cc23)c[nH]1)c1c[nH]c2ccccc12 [Compound 8, Neoisotopsentin]
IC50 [1, 8]: 1.8 µg/mL (≈ 5.26 µM) | CYT. (CV-1 cells [2]; Table 4, 20 μg/disk): 0 | CYT. (CV-1 cells [3]; Table 3, 20 ug/disk): 0

O=C(C1=NC(c2c[nH]c3ccccc23)CN1)c1c[nH]c2cc(Br)ccc12 (stereo not drawn) [Compound 3, 4,5-dihydro-6"-deoxybromotopsentin]
P388 IC50 ([1]; P388 murine leukemia cells, 48 h, MTT): 4.0 µg/mL | AVA (HSV-1; Table 4, 20 μg/disk): +++

O=C(c1nc(-c2c[nH]c3ccc(O)cc23)c[nH]1)c1c[nH]c2ccc(O)cc12 [Compound 9, Neohydroxytopsentin]
IC50 [1, 8]: > 20 µg/mL | CYT. (CV-1 cells [2]; Table 4, 20 μg/disk): 0 | CYT. (CV-1 cells [3]; Table 3, 20 ug/disk): 0

O=C(c1nc(-c2c[nH]c3cc(Br)ccc23)c[nH]1)c1c[nH]c2cc(O)ccc12 [Compound 2, Bromotopsentin]
Survival % T/C (P388 leukemia; 37.5 mg/kg ip): 105% | Survival % T/C (P388 leukemia; 75 mg/kg ip): 111% | Survival % T/C (P388 leukemia; 150 mg/kg ip): 116% | AVA ([4]; Table 3, 200 ug/disk): ++ | activity at 500 fg/mL [5]: > 90% | activity at 5 pg/mL ([5]; 5 pg/ml): > 90% | activity at 50 pg/mL [5]: < 25% | IC50 [1, 8]: 7 µg/mL (≈ 16.6 µM) | AVA (HSV-1; Table 4, 10 μg/disk): ++ | CYT. (CV-1 cells [2]; Table 4, 5 μg/disk): 0 | CYT. (CV-1 cells [2]; Table 4, 10 μg/disk): 0 | CYT. (CV-1 cells [3]; Table 3, 50 ug/disk): 0 | CYT. (CV-1 cells [3]; Table 3, 200 ug/disk): 0 | activity at 5 pg/mL [7]: 50 to 74% | activity at 20 pg/mL [7]: 25 to 49% | activity at 50 pg/mL [7]: < 25% | activity at 500 fg/mL [7]: > 90%

O=C(c1nc(-c2c[nH]c3cc(O)ccc23)c[nH]1)c1c[nH]c2cc(O)ccc12 [Compound 5, Hydroxytopsentin]
IC50 [1, 8]: 0.3 µg/mL (≈ 0.837 µM) | AVA (HSV-1; Table 4, 20 μg/disk): ++ | CYT. (CV-1 cells [2]; Table 4, 2 μg/disk): 0 | CYT. (CV-1 cells [2]; Table 4, 20 μg/disk): 0 | CYT. (CV-1 cells [3]; Table 3, 20 ug/disk): 0

— patent US4866084A, “Topsentin compounds effective against viruses and certain tumors” (Harbor Branch Oceanographic Institution, Inc., priority 1988, dated 1989)
